Values joined by “and” are separate entries in the source; they are usually repeats but may differ in a detail not shown here. Equal values may be shown once.
Tests used:
[1] = Functional assay to measure dose dependent changes in cell viability from drug treatment in Vero E6 miRFP670 cells (cotreated with P-gp inhibitor, CP100356) that are infected with Dengue virus type 2 New Guinea C. […] Cytotoxicity is reported via via analysis of DAPI count using high-content imager. The assay has been performed by KU Leuven.; assay type: toxicity, cell-based, Vero C1008; settings: chlorocebus sabaeus, p-gp concentration 500 nM
[2] = (§1) Functional CPE-based assay to measure dose dependent changes in cell viability from drug treatment in Vero E6 miRFP670 cells. Cells are treated with antiviral candidates that have been serially diluted. Cytotoxicity is reported via analysis of MTS assays in uninfected cells. The assay has been performed by KU Leuven.; assay type: toxicity, Vero C1008; settings: chlorocebus sabaeus
[3] = as §1, with “miRFP670 cells (cotreated with P-gp inhibitor, CP100356).” for “miRFP670 cells.”; assay type: toxicity, Vero C1008; settings: chlorocebus sabaeus
[4] = as §1, with “Huh-7” for “Vero E6 miRFP670”, “of MTT/” for “of”, “National Institute of Allergy and Infectious Diseases.” for “KU Leuven.”; assay type: toxicity; settings: human
[5] = Functional metabolic assay to measure dose dependent changes in cell viability from drug treatment in Vero E6/TMPRSS2 cells (cotreated with P-gp inhibitor, Elacridar). […] Cytotoxicity is reported via measuring absorbance and analysis of MTT/MTS assays in uninfected cells. The assay has been performed by Icahn School of Medicine at Mount Sinai.; assay type: toxicity, cell-based, VeroE6/TMPRSS2; settings: chlorocebus sabaeus, p-gp concentration 2 uM
[6] = Functional metabolic assay to measure dose dependent changes in cell viability from drug treatment in Vero E6/TMPRSS2 cells. Cells are treated with antiviral candidates that have been serially diluted. Cytotoxicity is reported via measuring absorbance and analysis of MTT/MTS assays in uninfected cells. The assay has been performed by Icahn School of Medicine at Mount Sinai.; assay type: toxicity, cell-based, VeroE6/TMPRSS2; settings: chlorocebus sabaeus; for CC50: Vero E6/TMPRSS2 cells; for CC10: veroe6/tmprss2
[7] = with CP100356 (P-gp inhibitor, concentration not stated)
[8] = Vero E6 miRFP670 cells, with CP100356 (P-gp inhibitor, concentration not stated), p-gp concentration 500 nM
[9] = vero c1008, p-gp concentration 500 nM
[10] = Vero E6/TMPRSS2 cells, with Elacridar (P-gp inhibitor, concentration not stated)

Compound	CC50 [1, 7] [µM]	CC50 ([2]; Vero E6 miRFP670 cells) [µM]	CC50 [5, 10] [µM]	CC10 ([5]; veroe6/tmprss2)	further results
C#C[C@@]1(O)[C@H](O)[C@@H](CO)O[C@H]1n1ccc2c(N)ncnc21	> 50	> 50			CC50 ([1]; vero c1008): 40.4 µM and 28.2 µM; CC50 [3, 8]: > 50 µM; CC50 [3, 9]: 38 µM
CCCCCC(=O)N[C@H](C(=O)NCc1cccc(CN)c1)c1ccc(OCc2ccccc2)cc1	2.32				CC50 [4]: 18 µM
CCCCCC(=O)N[C@H](C(=O)Nc1ccc2[nH]ncc2c1)c1ccc(OCc2ccccc2)cc1	> 10				CC50 [4]: 32 µM
CCCCCC(=O)N[C@H](C(=O)Nc1ccc(C(N)=O)cc1)c1ccc(OCc2ccccc2)cc1	> 10				CC50 [4]: 32 µM
CCCCCC(=O)N[C@H](C(=O)N1CCCCC1)c1ccc(OCc2ccccc2)cc1	> 10				CC50 [4]: 19 µM
CC(C)Cc1nc2c(C(=O)Nc3ccc4c(c3)CNC4)cc(Br)cc2[nH]1	0.864	0.623	20.9	0.569 µM	
O=C(Nc1ccc2c(c1)CNC2)c1cc(Cl)cc(-n2cccc2)c1	> 50	> 50	46.4	17.502 µM and 9.003 µM	CC50 ([5]; veroe6/tmprss2): 34.8 µM
Clc1ccc2[nH]cc(Cc3ccc(-c4nn[nH]n4)cc3)c2c1	19.3	> 50	> 50	> 50 µM	
CC(C)NC(=O)[C@H](Nc1ccc2c(c1)CNC2)c1cc(Cl)cc2[nH]ncc12		> 50	> 50	> 50 µM	CC50 ([1]; vero c1008): > 50 µM and 7.69 µM and 29 µM; CC50 [3, 8]: > 50 µM; CC50 [3, 9]: 47.7 µM
O=C(Nc1ccc2c(c1)CNC2)c1cc(Cl)cc(C2CC2)c1	11.2	10.5	> 50	0.136 µM	
O=C1Cc2c(cccc2C(=O)Nc2ccc3c(c2)CNC3)N1	> 50	> 50			CC50 [3, 8]: > 50 µM
O=C(Nc1ccc2c(c1)CNC2)c1cc(Br)cc2[nH]c(-c3ccccc3)nc12	3.3	10.7	14.3	0.098 µM	
O=C(Nc1ccc2c(c1)CNCCC2)c1cc(Cl)cc2[nH]ncc12	2.18	1.42	> 50	< 0.023 µM	
O=C(Nc1cc(Cl)cc(C(=O)NCc2ccc(-c3nnn[nH]3)cc2)c1)OCc1ccccc1	3.21	> 50	> 50	> 50 µM	
CC(C)(C)NC(=O)[C@H](Nc1cccc(-c2nn[nH]n2)c1)c1cc(Cl)cc(NC(=O)OCc2ccccc2)c1	2.78	> 50	> 50	> 50 µM	
O=C(Nc1cc(Cl)cc([C@H]2CN(Cc3ccccc3)C[C@@H]2c2cccc(-c3nn[nH]n3)c2)c1)OCc1ccccc1	12.3	12.5	> 50	34.224 µM	
O=C(Nc1ccc2c(c1)CNC2)c1cccc2[nH]ncc12	15.4	11.5	> 50	> 50 µM	
O=C(Nc1cc(Cl)cc(C(=O)Nc2ccc3c(c2)CNC3)c1)OCc1ccccc1	12.1	9.29			CC50 ([5]; veroe6/tmprss2): > 10 µM and 25.1 µM; CC50 [6]: 16.6 µM; CC10 [6]: 19.011 µM
O=C(Nc1ccc2c(c1)CNC2)c1cc(Br)cc2[nH]c(Cc3ccccc3)nc12	9.98	11.6	16.5	0.199 µM	
CCc1nc2c(C(=O)Nc3ccc4c(c3)CNC4)cc(Br)cc2[nH]1	> 50	> 50	33.5	0.32 µM	
CC(C)c1nc2c(C(=O)Nc3ccc4c(c3)CNC4)cc(Br)cc2[nH]1	3.63	2.65	19.2	0.476 µM	
NCCCc1cccc(NC(=O)c2cc(Cl)cc(NC(=O)OCc3ccccc3)c2)n1		4.43	14.9	0.527 µM	CC50 [6]: 6.18 µM; CC10 [6]: 6.788 µM
NCc1cccc(NC(=O)c2cc(Cl)cc(-n3cccc3)c2)c1	> 50	25.7	> 50	> 50 µM	
O=C(Nc1cc(Cl)cc(C(=O)Nc2cccc(C3CCNCC3)c2)c1)OCc1ccccc1	11.8	5.29	> 10		CC50 ([5]; veroe6/tmprss2): 13.5 µM
N#C[C@H](Nc1ccc2c(c1)CNC2)c1cc(Cl)cc2[nH]ncc12		> 50	> 50	> 50 µM	

Compound	CC50 [1, 7] [µM]	CC50 ([2]; Vero E6 miRFP670 cells) [µM]	CC50 [5, 10] [µM]	CC10 ([5]; veroe6/tmprss2)	further results
NCc1cccc(NC(=O)C[C@@H](NC(=O)OCc2ccccc2)c2ccc(OCc3ccccc3)cc2)c1	> 10				CC50 [4]: 6.1 µM
NCc1cccc(NC(=O)[C@@H](NC(=O)OCc2ccccc2)c2ccc(OCc3ccccc3)cc2)c1	5.95				CC50 [4]: 18 µM
O=C(O)COc1cccc(NC(=O)c2cc(Cl)cc(NC(=O)OCc3ccccc3)c2)c1		> 50	> 50	> 50 µM	
CCOc1cccc(-c2ccc(S(=O)(=O)Nc3ccc(Cl)cc3C(=O)O)cc2C)c1	21.9	36.1	> 50	0.027 µM	
NCCc1ccc([C@H]2C[C@@H]2c2cc(Cl)cc(NC(=O)OCc3ccccc3)c2)cc1	5.29	2.43			CC50 ([1]; vero c1008): 4.57 µM; CC50 [3, 8]: 5.78 µM
O=C(Nc1cc(Cl)cc(C(=O)Nc2ccc(C3CCNCC3)cc2)c1)OCc1ccccc1	3.1	2.82			CC50 [3, 8]: 1.43 µM
COc1cc(Cc2c(-c3ccc(F)cc3)noc2C)nc(N2CCNCC2)n1	> 10				CC50 [4]: 18 µM
Cc1cc(CN)cc(NC(=O)c2cc(Cl)cc(NC(=O)OCc3ccccc3)c2)c1			> 10		CC50 ([5]; veroe6/tmprss2): 16.6 µM; CC50 [6]: 7.97 µM; CC10 [6]: 8.014 µM
CC(C)OC(=O)Nc1cc(Cl)cc(C(=O)Nc2cccc(CN)c2)c1	4.99	20.5	> 50	< 0.023 µM	
O=C(Nc1cc(Cl)cc(-c2ccc3cc(C(=O)O)[nH]c3c2)c1)OCc1ccccc1	24.8	< 0.391			CC50 [3, 8]: 38.1 µM
COC(=O)c1cc(NC(=O)c2cc(Cl)cc(NC(=O)OCc3ccccc3)c2)cc(-c2nnn[nH]2)c1		35.2	> 50	> 50 µM	
O=C(Nc1cc(Cl)cc(C(=O)Nc2cccc(-c3nnn[nH]3)c2)c1)OCc1ccccc1			> 50	0.117 µM	CC50 [6]: > 50 µM; CC10 [6]: > 50 µM
CCc1cc(C(=O)Nc2cccc(CN)c2)sc1-c1ccc(Cl)cc1		4.86	9.12	0.452 µM	CC50 [6]: 13.9 µM; CC10 [6]: 15.317 µM
CC[C@@H](Cc1nnn[nH]1)c1ccc(NC(=O)c2cc(Cl)cc(NC(=O)OCc3ccccc3)c2)cc1	> 50	> 50	> 50	> 50 µM	CC50 [6]: > 50 µM; CC10 [6]: > 50 µM
Cc1cc(-c2ccc([C@@H](NC(=O)OCc3ccccc3)C(=O)Nc3cccc(CN)c3)cc2)cs1			21.2	0.089 µM	CC50 [6]: 6.25 µM; CC10 [6]: 7.281 µM
NCc1cccc(C(=O)Nc2cc(Cl)cc(NC(=O)OCc3ccccc3)c2)c1			> 10		CC50 ([5]; veroe6/tmprss2): 19.3 µM; CC50 [6]: 6.67 µM; CC10 [6]: 8.366 µM
NCCc1cccc(NC(=O)[C@H]2[C@H]3CCCCC[C@H]3[C@H]2NC(=O)OCc2ccccc2)c1	7.53	7.48	4.88	0.282 µM	CC50 [6]: 1.78 µM; CC10 [6]: 2.002 µM
NCc1cccc(CCc2cc(Cl)cc(NC(=O)OCc3ccccc3)c2)c1	11.9	5.46	29.7	2.058 µM	
O=C(O)c1cc2cc(-c3cc(Cl)cc(C4CC4)c3)ccc2[nH]1	26.5	40.7			CC50 [3, 8]: 35.5 µM
Cc1ccc(NC(=O)c2cc(Cl)cc(NC(=O)OCc3ccccc3)c2)cc1CN	4.33	5.18	15		CC50 ([5]; veroe6/tmprss2): 15.2 µM; CC50 [6]: 6.64 µM; CC10 [6]: 8.104 µM; CC50 [3, 8]: 5.8 µM
Cc1[nH]c2ccccc2c1CN1CCC(c2c[nH]c3ncccc23)CC1	31	25.2	> 10		CC50 [6]: > 50 µM; CC10 [6]: > 50 µM
CCc1cc(Br)cc2c(Cc3ccc(-c4nnn[nH]4)cc3)c[nH]c12	23.1	19.4			CC50 ([1]; vero c1008): 18.6 µM; CC50 ([2]; vero c1008): 17.9 µM; CC50 [3, 8]: 21.7 µM
O=C(O)c1cc(Cl)ccc1NS(=O)(=O)c1ccc(Oc2ccccc2Cl)cc1					CC50 [6]: > 50 µM; CC10 [6]: > 50 µM
O=C(Nc1cc(Cl)cc(C(=O)Nc2cccc(-n3nn[nH]c3=O)c2)c1)OCc1ccccc1	> 50	> 50			CC50 [6]: > 50 µM; CC10 [6]: > 50 µM
C[C@@]1(O)[C@H](O)[C@@H](CO)O[C@H]1n1ccc2c(N)ncnc21 [BETA-2'-C-METHYL-7-DEAZA-ADENOSINE]		> 50	> 10		CC50 ([1]; vero c1008): 24.6 µM and > 200 µM; CC50 [6]: > 10 µM; CC10 [6]: > 10 µM; CC50 ([3]; vero c1008, p-gp concentration 100 nM): > 50 µM; CC50 [3, 9]: > 200 µM
